In article PMC2915651 (2010):

Tests used:
[1] = test system: [d(TGGGGT)]4 (DNA, G4) TGGGGT; experiment: ITC; conditions: 70 mM KCl; 20 mM phosphate, 0.1 mM EDTA, pH 7.0, 25 °C; identical sites, n = 2.0
[2] = test system: d(CGCGAATTCGCG)2 (DNA, duplex) CGCGAATTCGCG; experiment: ITC; conditions: 70 mM KCl; 20 mM phosphate, 0.1 mM EDTA, pH 7.0, 25 °C; no resolvable isotherm; ligand 600–700 μM into 30 μM DNA
[3] = test system: [d(TGGGGT)]4 (DNA, G4) TGGGGT; experiment: 1H NMR titration; conditions: 70 mM KCl; 10 mM phosphate, EDTA, pH 7.0, 25 °C; 2 mM quadruplex; fast exchange
[4] = test system: d(CGCGAATTCGCG)2 (DNA, duplex) CGCGAATTCGCG; experiment: 1H NMR titration; conditions: 70 mM KCl; 10 mM phosphate, EDTA, pH 7.0, 25 °C; 1 mM DNA; shifts at most 0.03 ppm at 2:1

Row | SMILES | K b [1] | binding [2] | binding [3] | binding [4]
1 | Cn1cc(NC(=O)c2cc(NC(=O)c3cc(N=CN)cn3C)cn2C)cc1C(=O)NCCC(=N)N | 1.9 ± 0.2 × 10^6 M^-1 | weak | yes | weak
2 | Cn1cc(NC(=O)c2cc(NC(=O)CN=C(N)N)cn2C)cc1C(=O)NCCC(=N)N | 1.2 ± 0.1 × 10^6 M^-1 |  |  | 
